In PMC6967409 (Frontiers in Chemistry, 2020):
Where “and” joins values, the source holds several entries; their conditions need not be identical. Equal values may be shown once. Read-outs that look alike come from different tables or passages of the source.

Assays:
[1] = system: P. falciparum NF54 late stage gametocytes (>90% stage IV and V); set-up: method as in Coertzen et al. (2018); details: read-out: Late Stage (LG, Luc 72 h) IC50; >90% stage IV and V gametocytes; ref Coertzen et al. (2018); cited from earlier work
P. falciparum W2 [2] = system: P. falciparum W2; set-up: method as in Coertzen et al. (2018); details: SYBR Green I; ref Coertzen et al. (2018); read-out: Proliferative IC50 W2; cited from earlier work
P. falciparum NF54 [3] = system: P. falciparum NF54; set-up: method as in Coertzen et al. (2018); details: SYBR Green I; ref Coertzen et al. (2018); read-out: Proliferative IC50 NF54; cited from earlier work
P. falciparum W2 [4] = experiment: T0 [3H]-hypoxanthine drug susceptibility assay; format: cell-based; details: Plasmodium falciparum
P. falciparum Dd2 [5] = system: P. falciparum Dd2; set-up: method as in Coertzen et al. (2018); details: pLDH, 48 h; ref Coertzen et al. (2018); read-out: Metabolic IC50 Dd2; cited from earlier work
P. falciparum K1 [6] = system: P. falciparum K1; set-up: method as in Coertzen et al. (2018); details: SYBR Green I; ref Coertzen et al. (2018); read-out: Proliferative IC50 K1; cited from earlier work
[7] = system: P. falciparum NF54 early stage gametocytes (>90% stage I–III); set-up: method as in Coertzen et al. (2018); details: read-out: Early Stage (EG, Luc 48 h) IC50; >90% stage I–III gametocytes; ref Coertzen et al. (2018); cited from earlier work
P. falciparum NF54 [8] = system: P. falciparum NF54; set-up: method as in Coertzen et al. (2018); details: pLDH, 48 h; ref Coertzen et al. (2018); read-out: Metabolic IC50 NF54; cited from earlier work
[9] = system: Chinese hamster ovarian (CHO) cells; details: read-out: Cytotoxicity EC50 CHO; MTT assay; ref Coertzen et al. (2018); cited from earlier work
[10] = system: P. falciparum NF54 early stage gametocytes (>90% stage I–III); experiment: Gametocytocidal luciferase reporter assay, early stage, 48 h; format: cell-based; details: Plasmodium falciparum, NF54, 48 h, read-out: Early Stage (EG, Luc 48 h) IC50
Experimental: (§1) P. falciparum parasites (NF54, K1, and W2) were cultured in vitro in human erythrocytes (A^+ or O^+) under 90% N2, 5% CO2, and 5% O2 atmospheric conditions with supplemented RPMI 1640 media (Sigma Aldrich) containing Albumax II, as previously described (Verlinden et al., [2011]). This study was carried out according the guidelines set out by the Faculty of Health Sciences Ethical Committee, Ethical Clearance no. EC-120821/077. The protocol was approved by the Faculty of Health sciences ethical committee at the University of Pretoria. All subjects gave written informed consent in accordance with the Declaration of Helsinki. Parasite proliferation was monitored microscopically using Giemsa stained smears. Synchronized ring stage parasites (>95%) were obtained using a 5% D-sorbitol (Sigma Aldrich) treatment. […] Gametocyte cultures were kept stationary under 90% N2, 5% CO2, and 5% O2 atmospheric conditions at 37°C and treated with 50 mM N-acetyl-glucosamine (NAG) to eliminate residual invasion of asexual parasites.
(§2) Gametocytocidal activity was determined using the luciferase reporter line (Reader et al., [2015]) to derive dose responses with two-fold serial drug dilutions for 48 h against early stage gametocytes (day 5 post-induction population, >90% stage I–III) and 10-fold serial drug dilutions for 72 h against late stage gametocytes (day 10 post-induction population, >90% late stage IV–V) (2% gametocytemia, 2% hematocrit), at 37°C under 90% N2, 5% CO2, and 5% O2 atmospheric conditions.

P. falciparum W2 [11] = experiment: Proliferative (SYBR Green I) assay, asexual parasites, 96 h; format: cell-based; details: Plasmodium falciparum, ±SEM
Experimental: as §1
(§3) Working solutions of the derivatives were prepared from a 10 mM stock solution in 100% DMSO in supplemented RPMI 1640 media containing Albumax II with a final DMSO concentration of <0.1%, previously determined as being non-toxic to intraerythrocytic asexual parasites and gametocytes. Dose responses were assayed using a two-fold serial drug dilution on in vitro >95% ring stage intraerythrocytic P. falciparum parasites at 37°C under 90% N2, 5% CO2, and 5% O2 atmospheric conditions, detecting both parasite lactate dehydrogenase (pLDH) activity as a metabolic marker following a 48 h drug exposure (1.5–2% parasitemia and 2% hematocrit; Makler et al., [1993]) and SYBR Green I fluorescence as proliferative marker following a 96 h drug exposure (1% parasitemia and 1% hematocrit). […] Data analysis was performed using GraphPad Prism 7.

P. falciparum K1 [12] = experiment: as above; format: cell-based; details: Plasmodium falciparum, ±SEM
Experimental: as §1, §3

P. falciparum NF54 [13] = experiment: as above; format: cell-based; details: Plasmodium falciparum, ±SEM
Experimental: as §1, §3

Cytotoxicity, MTT assay = format: cell-based; details: Chinese hamster, CHO cells
Experimental: (§4) Cytotoxicity (EC50) was determined against Chinese hamster ovarian (CHO) using a 3-(4,5-dimethylthiazol-2-yl)-2,5-diphenyltetrazolium bromide (MTT) assay and hepatocellular carcinoma cells (HepG2) using the Cytoselect LDH cytotoxicity assay kit (Cell Biolabs).

[14] = system: P. berghei ANKA GFP-Luc-SMcon sporozoites; experiment: P. berghei-luciferase liver stage bioluminescence assay (causal prophylactic mode) in HepG2-CD81 cells; format: cell-based, Plasmodium berghei; details: for Emax: 48 h, read-out: P.berghei-Luciferase Liver Stage Bioluminescence Assay: Maximum measured (%); for inhibition at 10 µM: read-out: P. berghei sporozoites Maximum inhibition %
Experimental: (§5) Briefly, HepG2-CD81 cells were seeded into 1,536 well plates containing 50 nL of test and control compounds diluted into DMSO. […] Next, 2 μL of luciferin reagent (Promega BrightGlo) was added to each well and luciferase activity was detected using a Perkin Elmer Envision plate reader. […] In parallel, plates were processed without sporozoites for HepG2 toxicity measurements.
(§6) In continuation of the transmission blocking theme, it is important to establish activities against liver stage parasites. […] This assay uses ultra-high-throughput screening methods optimized for a 1536-well format and a HepG2 human hepatoma cell line. […] To establish selectivity of the compounds for the parasite in the liver stage of infection, cytotoxicity was determined by measuring bioluminescence from the reaction between free ATP of compound-treated, uninfected hepatocytes and a luciferase reporter system.

P. falciparum NF54 [15] = experiment: Metabolic (parasite LDH) assay, asexual ring stage parasites, 48 h; format: cell-based; details: Plasmodium falciparum, pLDH, CQ-sensitive NF54
Experimental: as §1, §3

[16] = system: asexual P. falciparum NF54, Dd2, K1, W2; experiment: Asexual P. falciparum, metabolic (pLDH) and proliferative (SYBR Green I) platforms; format: cell-based; details: Plasmodium falciparum; read-out: IC50 for drug sensitive NF54 parasites across both assay platforms
Experimental: Data analysis was performed using GraphPad Prism 7.
The in vitro activities of the new derivatives were determined against drug sensitive NF54 and multi-drug resistant Dd2, K1, and W2 intraerythrocytic asexual P. falciparum malaria parasite strains using both a metabolic (parasite LDH) and a proliferative (SYBR Green I fluorescence) assay readout (Table 1).

[17] = HepG2 cytotoxicity bioluminescence assay (CellTiterGlo, ATP); format: cell-based, human; details: human, uninfected HepG2-CD81 cells; for IC50 at 72 h: two biological replicates listed in one cell; for EC50 at 72 h: uninfected HepG2, ATP bioluminescence
Experimental: as §5, §6

HepG2 cells = experiment: as above; format: cell-based, human; details: two biological replicates listed in one cell
Experimental: as §5, §6

P. falciparum Dd2 [18] = experiment: Metabolic (parasite LDH) assay, asexual ring stage parasites, 48 h; format: cell-based; details: Plasmodium falciparum, pLDH, Dd2 CQ, pyrimethamine resistant
Experimental: as §3

[19] = system: P. falciparum NF54 late stage gametocytes (>90% stage IV and V); experiment: Gametocytocidal luciferase reporter assay, late stage, 72 h; format: cell-based, Plasmodium falciparum; details: Plasmodium falciparum, NF54, 72 h, read-out: Late Stage (LG, Luc 72 h) IC50, >90% stage IV and V gametocytes, ±SEM
Experimental: as §1, §2

[20] = Cytotoxicity, Cytoselect LDH cytotoxicity assay kit; format: cell-based; details: human, HepG2 cells
Experimental: as §4

[21] = Plasmodium berghei, two biological replicates listed in one cell
[22] = Plasmodium berghei, two biological replicates listed in one cell, read-out: P.berghei-Luciferase Liver Stage Bioluminescence Assay: IC50

SMILES	IC50 (P. falciparum W2 [11])	IC50 (P. falciparum K1 [12])	IC50 (P. falciparum NF54 [13])	EC50 (Cytotoxicity, MTT assay)	Emax [14, 21]	IC50 [14, 22]	IC50 (P. falciparum NF54 [15])	IC50 [16]	IC50 at 72 h [17]	EC50 at 72 h [17]	IC50 (P. falciparum Dd2 [18])	IC50 [19]	EC50 [20]	also measured
CC1CCC2C(C)C(Nc3ccc(F)cc3)OC3OC4(C)CCC1C32OO4 (stereo not drawn) [Arylamine 12]														IC50 [1]: 16.4 ± 6.38 nM; IC50 (P. falciparum W2 [2]): 3 ± 1 nM; IC50 (P. falciparum NF54 [3]): 1.3 ± 0.6 nM; IC50 (P. falciparum W2 [4]; W2, read-out: W2 IC50): 4.76 ± 0.38 nM; IC90 (P. falciparum W2 [4]; W2, read-out: W2 IC90): 8.51 ± 0.34 nM; IC50 (P. falciparum Dd2 [5]): 11.1 ± 1 nM; IC50 (P. falciparum K1 [6]): 0.64 ± 0.1 nM; IC50 [7]: 38.2 ± 9 nM; IC50 (P. falciparum NF54 [8]): 7.8 ± 1.9 nM; EC50 [9]: 2900 ± 1400 nM
C[C@H]1[C@H](N2CCN(C(=O)Nc3ccc(C(F)(F)F)cc3)CC2)O[C@@H]2O[C@@]3(C)CC[C@H]4[C@H](C)CC[C@@H]1[C@@]24OO3 [Compound 23]	1.41 ± 0.09 nM	1.12 ± 0.13 nM	1.55 ± 0.08 nM	185000 nM	99.5%	79.6 nM	1.83 ± 0.2 nM	1 to 2 nM	6990 nM	5450 nM	12.2 ± 1.9 nM	1 ± 0.3 nM	453 nM	IC50 ([10]; >90% stage I–III gametocytes, ±SEM): 20 ± 9.4 nM; IC50 ([14]; Plasmodium berghei, HepG2, 48 h, liver stage, HepG2 host cells, luciferase after 48 h, ±SD, read-out: P. berghei sporozoites IC50): 82.5 ± 4.17 nM; inhibition at 10 µM ([14]; Plasmodium berghei, Conc. 10 μM): 105 ± 7.42%; IC50 ([14]; two biological replicates listed in one cell, listed as 23 (WHN-11), read-out: P.berghei-Luciferase Liver Stage Bioluminescence Assay: IC50): 85.5 nM; HepG2 Cytotoxicity Bioluminescence Assay: Maximum measured (%) (HepG2 cells; listed as 23 (WHN-11)): 50.9% and 55.9%; IC50 (HepG2 cells; listed as 23 (WHN-11)): 3910 nM
C[C@H]1[C@H](N2CCN(C(=O)Nc3ccc(F)cc3)CC2)O[C@@H]2O[C@@]3(C)CC[C@H]4[C@H](C)CC[C@@H]1[C@@]24OO3 [Compound 24]	1.16 ± 0.17 nM	0.85 ± 0.1 nM	1.3 ± 0.1 nM	204000 nM	99.2%	101 nM	1.21 ± 0.04 nM	1 to 2 nM	6440 nM	5160 nM	9.2 ± 1.9 nM	17 ± 7 nM	340 nM	IC50 [10]: 36 ± 10.2 nM; IC50 ([14]; Plasmodium berghei, HepG2, 48 h, read-out: P. berghei sporozoites IC50, liver stage, HepG2 host cells, luciferase after 48 h, ±SD): 106 ± 6.36 nM; inhibition at 10 µM ([14]; Plasmodium berghei): 94.8 ± 2.76%; IC50 ([14]; two biological replicates listed in one cell, listed as 24 (WHN-12), read-out: P.berghei-Luciferase Liver Stage Bioluminescence Assay: IC50): 110 nM; HepG2 Cytotoxicity Bioluminescence Assay: Maximum measured (%) (HepG2 cells; listed as 24 (WHN-12)): 59.5% and 66.1%; IC50 (HepG2 cells; listed as 24 (WHN-12)): 3880 nM
